Results: patent US11229618B2 (Amarin Pharmaceuticals Ireland Limited, priority 2012, dated 2022)

Key:
[1] = AAMI 6-week study: essential fatty acid parameters in plasma (gas chromatography); assay type: in vivo, human; settings: for AA Plasma Mean change from Baseline / DHA Plasma Mean change from Baseline / AA Plasma 1 or 2 g versus 4 g LS Mean / DHA Plasma 1 or 2 g versus 4 g LS Mean: AAMI; for AA Plasma Mean change from Baseline / DHA Plasma Mean change from Baseline: mean (SD); for DGLA 1 or 2 g versus 4 g, LS Mean / DPAn-3 1 or 2 g versus 4 g, LS Mean / EPA/AA 1 or 2 g versus 4 g, LS Mean / DGLA Mean change from Baseline, Mean (SD) / DPAn-3 Mean change from Baseline, Mean (SD) / EPA/AA Mean change from Baseline, Mean (SD) / DGLA Baseline Mean (SD) / DPAn-3 Baseline Mean (SD) / EPA/AA Baseline Mean (SD): plasma; for DPAn-3 1 or 2 g versus 4 g, LS Mean / EPA/AA 1 or 2 g versus 4 g, LS Mean: p-value <0.001
Procedure: A single-center, 6-week, double-blind, randomizes, parallel-group, placebo-controlled, dose-ranging pilot study was performed to evaluate the efficacy, tolerability, and safety of >96% ethyl-EPA in subjects with subjective and objective memory impairment according to generally accepted criteria for Age-Associated Memory Impairment (“AAMI”). The primary objective of the study was to determine the effect of >96% ethyl-EPA 1 g, 2 g, and 4 g daily, compared to placebo, on cognitive performance in subjects with AAMI.
Ninety-four subjects were randomized into one of six groups: 1 g E-EPA daily (n=23), 2 g E-EPA daily (n=24), 4 g E-EPA daily (n=24), 1 g placebo daily (n=7), 2 g placebo daily (n=8), and 4 g placebo daily (n=8). E-EPA was provided as 500 mg soft gel capsules containing>96% E-EPA and 0.2% dl-α-tocopherol as an antioxidant. Placebo capsules contained 467 mg of liquid paraffin and 0.2% dl-α-tocopherol. Ninety-one subjects completed the study. Two subjects in the 2 g E-EPA group and one subject in the 2 g placebo group discontinued the study.
Blood samples (10 mL) were collected at Visit 1 (screening) and at Visits 4, 5 and 6. Analysis was performed by MSR Lipid Analysis, Scottish Crop Research Institute, Dundee, UK. The screening sample acted as baseline for the EFA measurements. Lipid was extracted from plasma, serum and RBC suspensions and converted into fatty acid methyl esters which were analyzed by gas chromatography to give fatty acid profiles as micrograms fatty acid per gram of sample (μgFA/g) and normalized area percent.
RBC and plasma EFA data were collected at baseline, Day 14, 28 and 42 and summarized by visit for each treatment group. Change from baseline and percent change from baseline were also summarized. ANCOVA comparison of ethyl-EPA dose groups and ethyl-EPA versus placebo was performed.

[2] = Phase 1 multidose pharmacokinetic study: safety and tolerability; assay type: in vivo, human; settings: all groups
Source text: The safety population was defined as all randomized subjects who received at least one dose of study drug. The per-protocol population was defined as all safety population subjects who completed the 28-day treatment period without any major protocol deviations, and who provided blood samples for EPA analyses.
Safety assessments consisted of adverse event (AE) monitoring, clinical laboratory measurements (chemistry, hematology, and urinalysis) 12-lead electrocardiographic measurements, vital signs (systolic and diastolic blood pressure, heart rate, respiratory rate, and oral body temperature) and physical examination findings.

## CC/C=C\C/C=C\C/C=C\C/C=C\C/C=C\CCCC(=O)OCC [IPE, all-cis eicosa-5,8,11,14,17-pentaenoic acid ethyl ester]
[1]; 1 g daily, Day 14
  AA Plasma Mean change from Baseline: −9.7 (22.20) μg/g
  DHA Plasma Mean change from Baseline: −6.4 (13.30) μg/g
[1]; 1 g daily, Day 28
  AA Plasma Mean change from Baseline: −11.3 (28.13) μg/g
  DHA Plasma Mean change from Baseline: −6.6 (15.53) μg/g
[1]; 1 g daily, Day 42
  AA Plasma Mean change from Baseline: −8.7 (31.35) μg/g
  DHA Plasma Mean change from Baseline: −5.4 (18.17) μg/g
[1]; 1 g versus 4 g
  AA Plasma 1 or 2 g versus 4 g LS Mean: 4.2 µg/g
  DHA Plasma 1 or 2 g versus 4 g LS Mean: -0.8 µg/g
[1]; 2 g daily, Day 14
  AA Plasma Mean change from Baseline: −13.9 (22.13) μg/g
  DHA Plasma Mean change from Baseline: −5.4 (14.29) μg/g
[1]; 2 g daily, Day 28
  AA Plasma Mean change from Baseline: 21.6 (28.32) μg/g
  DHA Plasma Mean change from Baseline: −8.1 (15.82) μg/g
[1]; 2 g daily, Day 42
  AA Plasma Mean change from Baseline: −27.3 (26.76) μg/g
  DHA Plasma Mean change from Baseline: −6.0 (16.69) μg/g
[1]; 2 g versus 4 g
  AA Plasma 1 or 2 g versus 4 g LS Mean: 15.6 µg/g
  DHA Plasma 1 or 2 g versus 4 g LS Mean: 1.5 µg/g
[1]; 4 g daily, Day 14
  AA Plasma Mean change from Baseline: −27.2 (28.89) μg/g
  DHA Plasma Mean change from Baseline: −10.3 (13.35) μg/g
[1]; 4 g daily, Day 28
  AA Plasma Mean change from Baseline: −43.7 (32.24) μg/g
  DHA Plasma Mean change from Baseline: −13.5 (14.10) μg/g
[1]; 4 g daily, Day 42
  AA Plasma Mean change from Baseline: −48.3 (22.20) μg/g
  DHA Plasma Mean change from Baseline: −13.8 (15.31) μg/g
[1]; Ethyl-EPA 1 g versus 4 g, p-value 0.028
  DGLA 1 or 2 g versus 4 g, LS Mean: 3.7 µg/g
[1]; Ethyl-EPA 1 g versus 4 g
  DPAn-3 1 or 2 g versus 4 g, LS Mean: -15.1 µg/g
  EPA/AA 1 or 2 g versus 4 g, LS Mean: −0.66
[1]; Ethyl-EPA 1 g, Day 14
  DGLA Mean change from Baseline, Mean (SD): −10.4 (10.90) μg/g
  DPAn-3 Mean change from Baseline, Mean (SD): 7.5 (5.11) μg/g
  EPA/AA Mean change from Baseline, Mean (SD): 0.3 (0.4)
[1]; Ethyl-EPA 1 g, Day 28
  DGLA Mean change from Baseline, Mean (SD): −10.6 (10.23) μg/g
  DPAn-3 Mean change from Baseline, Mean (SD): 8.9 (5.62) μg/g
  EPA/AA Mean change from Baseline, Mean (SD): 0.3 (0.20)
[1]; Ethyl-EPA 1 g, Day 42
  DGLA Mean change from Baseline, Mean (SD): −9.4 (9.41) μg/g
  DPAn-3 Mean change from Baseline, Mean (SD): 11.3 (6.61) μg/g
  EPA/AA Mean change from Baseline, Mean (SD): 0.3 (0.24)
[1]; Ethyl-EPA 1 g
  DGLA Baseline Mean (SD): 51.2 (15.01) μg/g
  DPAn-3 Baseline Mean (SD): 21.1 (6.62) μg/g
  EPA/AA Baseline Mean (SD): 0.2 (0.14)
[1]; Ethyl-EPA 2 g versus 4 g, p-value 0.143
  DGLA 1 or 2 g versus 4 g, LS Mean: 2.5 µg/g
[1]; Ethyl-EPA 2 g versus 4 g
  DPAn-3 1 or 2 g versus 4 g, LS Mean: -9.5 µg/g
  EPA/AA 1 or 2 g versus 4 g, LS Mean: −0.41
[1]; Ethyl-EPA 2 g, Day 14
  DGLA Mean change from Baseline, Mean (SD): −14.1 (6.88) μg/g
  DPAn-3 Mean change from Baseline, Mean (SD): 17.4 (7.49) μg/g
  EPA/AA Mean change from Baseline, Mean (SD): 0.6 (0.23)
[1]; Ethyl-EPA 2 g, Day 28
  DGLA Mean change from Baseline, Mean (SD): −16.2 (9.88) μg/g
  DPAn-3 Mean change from Baseline, Mean (SD): 19.4 (8.48) μg/g
  EPA/AA Mean change from Baseline, Mean (SD): 0.8 (0.35)
[1]; Ethyl-EPA 2 g, Day 42
  DPAn-3 Mean change from Baseline, Mean (SD): 19.3 (8.63) μg/g
  EPA/AA Mean change from Baseline, Mean (SD): 0.7 (0.29)
[1]; Ethyl-EPA 2 g
  DGLA Baseline Mean (SD): 53.5 (14.12) μg/g
  DPAn-3 Baseline Mean (SD): 19.7 (4.50) μg/g
  EPA/AA Baseline Mean (SD): 0.2 (0.12)
[1]; Ethyl-EPA 4 g, Day 14
  DGLA Mean change from Baseline, Mean (SD): −22.9 (9.00) μg/g
  DPAn-3 Mean change from Baseline, Mean (SD): 24.5 (11.28) μg/g
  EPA/AA Mean change from Baseline, Mean (SD): 1.1 (0.28)
[1]; Ethyl-EPA 4 g, Day 28
  DGLA Mean change from Baseline, Mean (SD): −24.2 (10.73) μg/g
  DPAn-3 Mean change from Baseline, Mean (SD): 29.7 (13.23) μg/g
  EPA/AA Mean change from Baseline, Mean (SD): 1.3 (0.42)
[1]; Ethyl-EPA 4 g, Day 42
  DGLA Mean change from Baseline, Mean (SD): −22.5 (10.87) μg/g
  DPAn-3 Mean change from Baseline, Mean (SD): 32.0 (16.01) μg/g
  EPA/AA Mean change from Baseline, Mean (SD): 1.3 (0.45)
[1]; Ethyl-EPA 4 g
  DGLA Baseline Mean (SD): 57.1 (14.73) μg/g
  DPAn-3 Baseline Mean (SD): 21.7 (4.69) μg/g
  EPA/AA Baseline Mean (SD): 0.2 (0.07)
[2]
  changes in laboratory, electrocardiographic, or physical examination findings: no clinically meaningful changes
  intensity of adverse events: mild or moderate in intensity
